In the Deep4Chem optical property database:

Test: solvent given as SMILES

CCn1c2ccccc2c2cc(-c3cc(-c4ccc5c(c4)c4ccccc4n5CC)nc(-c4ccccc4)n3)ccc21
emission maximum (in C1CCOC1): 391 nm
emission maximum (in CCOC(C)=O): 389 nm
emission maximum (in CN(C)C=O): 415 nm
emission maximum (in Cc1ccccc1): 380 nm
emission maximum (in ClCCl): 405 nm

c1ccc2c(c1)c1ccccc1c1[nH]c(-c3ccc(-c4nc5c6ccccc6c6ccccc6c5[nH]4)cc3)nc21
emission maximum (in C1CCOC1): 456 nm
emission maximum (in CC#N): 462 nm
emission maximum (in CCO): 461 nm
emission maximum (in CS(C)=O): 430 nm
emission maximum (in ClCCl): 465 nm

C[Si](C)(C)c1ccc(-c2ccc(-c3ccc(-c4ccc(-c5ccc([Si](C)(C)C)cc5)s4)c4nsnc34)s2)cc1
emission maximum (in C1CCOC1): 620 nm

CN(C)c1ccc(C2=C3C=C(c4ccc(C=C(C#N)C#N)cc4)S[C@]34c3ccccc3[C@H]2c2ccccc24)cc1
emission maximum (in ClCCl): 748 nm

CC1(C)C(/C=C/c2cc3ccc(O)cc3oc2=O)=[N+](CCCS(=O)(=O)[O-])c2ccc3c(S(=O)(=O)O)cc(S(=O)(=O)O)cc3c21
emission maximum (in CCO): 659 nm
emission maximum (in CS(C)=O): 625 nm
emission maximum (in O): 643 nm

COc1ccc(-c2nc(-c3ccccc3)c(N(c3ccccc3)c3ccccc3)s2)cc1
emission maximum (in ClC(Cl)Cl): 457 nm

CCOC(=O)COc1ccc(/C=C/C2=[N+]3C(=Cc4c5ccccc5c(-c5[nH]c(C)cc5C)n4[B-]3(F)F)C(C)=C2)cc1
emission maximum (in ClCCl): 705 nm

CCC1=C(C)C2C(c3ccc(-c4ccc(-c5nc6c7ccccc7c7ccccc7c6n5-c5ccc(C(C)(C)C)cc5)cc4)cc3)c3c(C)c(CC)c(C)n3[B-](F)(F)[N+]2=C1C (centres undefined)
emission maximum (in ClC(Cl)Cl): 556 nm

COc1ccc(-c2cc3c(cc2OC)-c2c(c4c(c5c2-c2cc(OC)c(-c6ccc(OC)cc6)cc2C5)C(=O)N(CCC(C)C)C4=O)C3)cc1
emission maximum (in C1CCOC1): 493 nm

c1cc2cc(c1)c1ccc3ccc4ccc(cc4c3c1)c1ccc3ccc4ccc(cc4c3c1)c1cccc2c1
emission maximum (in Cc1ccccc1): 414 nm

CCCCc1cc(-c2cccc(COC)c2)oc1-c1cccc(-c2cc(CCCC)c(-c3cccc(-c4oc(-c5cccc(-c6oc(-c7cccc(COC)c7)cc6CCCC)c5)cc4CCCC)c3)o2)c1
emission maximum (in ClC(Cl)Cl): 373 nm

CCn1c(-c2ccc(OC)cc2)c(-c2ccc3ccccc3c2)c(-c2ccc3ccccc3c2)c1-c1ccc(OC)cc1
emission maximum (in CCOC(C)=O): 404 nm

CCN(CC)c1ccc(/C=C/C2=[O+][B-](F)(F)Oc3c2c(=O)oc2cc(N(CC)CC)ccc32)cc1
emission maximum (in C1CCCCC1): 556 nm
emission maximum (in C1COCCO1): 610 nm
emission maximum (in CC#N): 644 nm
emission maximum (in CC(C)=O): 636 nm
emission maximum (in CCO): 635 nm
emission maximum (in CCOC(C)=O): 617 nm
emission maximum (in CO): 637 nm
emission maximum (in CS(C)=O): 659 nm
emission maximum (in Cc1ccccc1): 597 nm
emission maximum (in ClC(Cl)Cl): 622 nm
emission maximum (in ClCCl): 634 nm
emission maximum (in OCC(O)CO): 654 nm
emission maximum (in OCCO): 653 nm

CC(C)(C)c1ccc(-c2nc3c4ccccc4c4ccccc4c3n2-c2ccc(-c3ccc(N(c4ccccc4)c4ccccc4)cc3)cc2)cc1
emission maximum (in ClCCl): 426 nm

O=S(=O)(c1ccc(N(c2ccccc2)c2ccccc2)cc1)c1ccc(S(=O)(=O)c2ccc(N(c3ccccc3)c3ccccc3)cc2)cc1
emission maximum (in Cc1ccccc1): 451 nm

CC(C)(C)OC(=O)NCC(=O)OCc1ccc2c3cccc4cccc(c5cccc1c52)c43
emission maximum (in CCO): 446 nm

CN(C)c1ccc(/C=C/c2ccc(C#N)cc2)cc1
emission maximum (in C1CCOC1): 499 nm
emission maximum (in CC#N): 530 nm
emission maximum (in CCCC#N): 522 nm
emission maximum (in CCCCCC): 415 nm
emission maximum (in CCCCOCCCC): 453 nm
emission maximum (in CCO): 524 nm
emission maximum (in CCOCC): 475 nm

Cn1c2nc(=O)[nH]c(=O)c-2nc2ccccc21
emission maximum (in CC1CCCO1): 489 nm

NS(=O)(=O)c1ccc(N2N=C(c3ccc(O)cc3)CC2c2ccccc2)cc1 (centres undefined)
emission maximum (in C1CCOC1): 418 nm
emission maximum (in C1COCCO1): 417 nm
emission maximum (in CC#N): 417 nm
emission maximum (in CC(C)O): 423 nm
emission maximum (in CCO): 428 nm
emission maximum (in CCOC(C)=O): 416 nm
emission maximum (in CN(C)C=O): 422 nm
emission maximum (in CO): 432 nm
emission maximum (in CS(C)=O): 424 nm
emission maximum (in O): 448 nm

CN(C)c1ccc(/C=C/C(=O)c2ccc(Cl)cc2)cc1
emission maximum (in C1CCOC1): 516 nm
emission maximum (in CC#N): 540 nm
emission maximum (in CC(=O)O): 521 nm
emission maximum (in CC(C)=O): 532 nm
emission maximum (in CCO): 542 nm
emission maximum (in CN(C)C=O): 542 nm
emission maximum (in CO): 544 nm
emission maximum (in Cc1ccccc1): 486 nm
emission maximum (in ClC(Cl)Cl): 522 nm
emission maximum (in c1ccccc1): 488 nm

Cc1cc(C)c(-c2nnc(-c3ccc(-n4c5ccccc5c5ccccc54)cc3)o2)c(C)c1
emission maximum (in CCO): 435 nm
emission maximum (in Cc1ccccc1): 379 nm

Oc1cccc2ccccc12
emission maximum (in C1CCCCC1): 344.23 nm

CCN(CC)c1ccc([N+]2=Cc3ccc4c5c(ccc4c3O[B-]2(c2ccccc2)c2ccccc2)C=[N+](c2ccc(N(CC)CC)cc2)[B-](c2ccccc2)(c2ccccc2)O5)cc1
emission maximum (in Cc1ccccc1): 627 nm
emission maximum (in ClCCl): 644 nm

CC1(C)CCc2c(c3ccccc3c3nc4c(nc23)c2c(c3ccccc34)OC(C)(C)CC2)O1
emission maximum (in C1CCCCC1): 434.97 nm
emission maximum (in C1COCCO1): 443.26 nm
emission maximum (in CC#N): 449.03 nm
emission maximum (in CC(C)O): 448.03 nm
emission maximum (in CCCCCC): 434.22 nm
emission maximum (in ClC(Cl)Cl): 446.43 nm
emission maximum (in c1ccccc1): 441.7 nm

CC1CCC(=CS/C=C/c2ccc(/C=C/SC=C3CCC(C)CC3)cc2)CC1 (centres undefined)
emission maximum (in ClCCl): 427 nm

CCOC(=O)CN1C(=O)C2=C(c3ccc(C#N)cc3)N(CC(=O)OCC)C(=O)C2=C1c1ccccc1
emission maximum (in CC#N): 538 nm
emission maximum (in CS(C)=O): 547 nm
emission maximum (in Cc1ccccc1): 544 nm

ClC(Cl)=C1c2ccccc2C(C2(Cl)c3ccccc3C(=C(Cl)Cl)c3ccccc32)c2ccccc21 (centres undefined)
emission maximum (in C1CCCCC1): 425.81 nm
emission maximum (in CCCCCO): 442.64 nm
emission maximum (in CCCCO): 446.26 nm
emission maximum (in CCCO): 443.26 nm
emission maximum (in CCO): 447.14 nm
emission maximum (in CO): 449.43 nm

Cc1cc(C)c(B(c2ccc(N3c4ccccc4Oc4ccccc43)cc2)c2c(C)cc(C)cc2C)c(C)c1
emission maximum (in C1CCCCC1): 475.13 nm
emission maximum (in C1CCOC1): 602.56 nm
emission maximum (in CN(C)C=O): 665.64 nm
emission maximum (in Cc1ccccc1): 540 nm
emission maximum (in ClCCl): 598.46 nm

CN(C)c1ccc(-c2cc(-c3ccc(N(C)C)cc3)ncn2)cc1
emission maximum (in ClCCl): 429 nm

CC(C)(C)c1ccc2c(c1)c1cc(C(C)(C)C)ccc1n2-c1ccc(-n2c3ccc(C(C)(C)C)cc3c3cc(C(C)(C)C)ccc32)c(C(=O)c2ccncc2)c1
emission maximum (in C1CCOC1): 519.49 nm
emission maximum (in CCCCCC): 476.84 nm
emission maximum (in Cc1ccccc1): 508 nm
emission maximum (in ClCCl): 561.4 nm

COc1cc(/C=C/c2ccncc2)c(OC)cc1C=O
emission maximum (in C1CCOC1): 448 nm
emission maximum (in CC#N): 465 nm
emission maximum (in CN(C)C=O): 463 nm
emission maximum (in Cc1ccccc1): 446 nm
emission maximum (in ClCCl): 460 nm

O=C(c1ccc(/C(=C(/c2ccccc2)c2ccc(C(=O)c3ccc(-n4c5ccccc5c5ccccc54)cc3)cc2)c2ccccc2)cc1)c1ccc(-n2c3ccccc3c3ccccc32)cc1
emission maximum (in C1CCOC1): 502 nm

C[P+](c1c2ccccc2cc2ccccc12)(c1c2ccccc2cc2ccccc12)c1c2ccccc2cc2ccccc12
emission maximum (in C1CCOC1): 494 nm

COc1cc2c(cc1-c1ccc(C=O)cc1)Cc1c3c(c4c(c1-2)-c1cc(OC)c(-c2ccc(C=O)cc2)cc1C4)C(=O)N(CCC(C)C)C3=O
emission maximum (in C1CCOC1): 462 nm

C(#Cc1cc2ccc3cc(C#Cc4ccccc4)cc4ccc(c1)c2c34)c1ccccc1
emission maximum (in Cc1ccccc1): 418 nm

COC(=O)C(NC(=O)OC(C)(C)C)c1ccc2oc(-c3ccc(OC(=O)c4ccccc4)cc3O)nc2c1 (centres undefined)
emission maximum (in CC1CCCCC1): 480 nm
emission maximum (in CC#N): 471 nm
emission maximum (in CO): 405 nm

CSc1sc(C(N)=O)c2nnn(C)c(=O)c12
emission maximum (in C1CCOC1): 496 nm
emission maximum (in CC#N): 505 nm
emission maximum (in CCO): 519 nm
emission maximum (in CN(C)C=O): 514 nm
emission maximum (in CO): 521 nm
emission maximum (in CS(C)=O): 527 nm

Cc1ccc(C2=C3C=CC4=[N+]3[P-](=O)(=O)n3c2ccc3-c2ccc([nH]2)/C(c2ccc(C)cc2)=c2/cc/c(o2)=C(\c2ccc(C)cc2)c2ccc4[nH]2)cc1
emission maximum (in ClC(Cl)Cl): 714 nm

O=[N+]([O-])c1ccc(-c2cn3ccc[n+]3[n-]2)cc1
emission maximum (in ClCCl): 556 nm

Fc1ccc(-c2ccc(-c3cc(-c4ccccn4)nc(-c4ccccn4)c3)cc2)c(F)c1
emission maximum (in ClCCl): 358 nm

c1ccc(C2=C(c3ccccc3)c3cccc4c3c(cc3nc5cc(-c6ccc(N(c7ccccc7)c7ccccc7)cc6)c(-c6ccc(N(c7ccccc7)c7ccccc7)cc6)cc5nc34)O2)cc1
emission maximum (in ClCCl): 568 nm

COc1ccc(C(=Cc2ccc(C=O)cc2)c2ccc(OC)cc2)cc1
emission maximum (in C1CCOC1): 396 nm

CC[N+]1(CC)CN2C(=N1)C(C(=O)O)=Cc1cc(Oc3ccccc3)ccc12
emission maximum (in O): 485 nm

Cc1ccc(-c2ccccc2)cc1
emission maximum (in C1CCCCC1): 333.89 nm

COc1ccc(-c2ccc(-c3ccc(OC)cc3)c3nc(-c4ccccc4)c(-c4ccccc4)nc23)cc1
emission maximum (in C1CCOC1): 504 nm
emission maximum (in CC#N): 512 nm
emission maximum (in CCCCCC): 477 nm
emission maximum (in CN(C)C=O): 514 nm
emission maximum (in Cc1ccccc1): 492 nm
emission maximum (in ClC(Cl)Cl): 502 nm

O=C(c1ccc(C(=O)c2ccc(N3c4ccccc4Oc4ccccc43)cc2)cc1)c1ccc(N2c3ccccc3Oc3ccccc32)cc1
emission maximum (in Cc1ccccc1): 600 nm
emission maximum (in c1cc(-c2cccc(-n3c4ccccc4c4ccccc43)c2)cc(-n2c3ccccc3c3ccccc32)c1): 555 nm

c1ccc(-c2nnc(-c3ccccc3)n2-c2ccc(N3c4ccccc4N(c4ccccc4)c4ccccc43)cc2)cc1
emission maximum (in Cc1ccccc1): 495 nm
emission maximum (in c1cc(-n2c3ccccc3c3ccccc32)cc(-n2c3ccccc3c3ccccc32)c1): 474 nm

CC(C)(C)c1ccc(N2c3ccc(C(C)(C)C)cc3B3c4cc(C(C)(C)C)ccc4N(c4ccc(C(C)(C)C)cc4)c4cc(-n5c6ccc(C(C)(C)C)cc6c6cc(C(C)(C)C)ccc65)cc2c43)cc1
emission maximum (in Cc1ccccc1): 470 nm
